This is an account of results in ChEMBL document CHEMBL1201862, “PubChem BioAssay data set” (2004).

In experiment [1] the target is Cyclin-dependent kinase 19 (Homo sapiens, UniProt Q9BWU1). As to the kind of experiment: Navigating the Kinome. Panel member name: CDC2L6. In kind it is functional.
Experiment [2] has as its target ALK tyrosine kinase receptor (Homo sapiens, UniProt Q9UM73). It counts as functional.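 Further: ALK tested as one member of a kinase panel screen.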
Experiment [3] concerns the target Botulinum neurotoxin type A (Clostridium botulinum (strain Hall / ATCC 3502 / NCTC 13319 / Type A), UniProt P0DPI1). Description: High-throughput multiplex microsphere dose response for inhibitors of toxin protease, specifically Botulinum neurotoxin light chain A protease, compounds from Cherry Pick 02. In kind it is functional. Particulars: read-out: EC50_MICROM.

Experiment [4] deals with Botulinum neurotoxin type F (Clostridium botulinum, UniProt P30996). As to the kind of experiment: High-throughput multiplex microsphere dose response for inhibitors of toxin protease, specifically Botulinum neurotoxin light chain F protease, compounds from Cherry Pick 02. Particulars: read-out: EC50_MICROM. In kind it is functional.
The target of experiment [5] is T1, Apoptotic protease-activating factor 1 (Homo sapiens, UniProt O14727).
T1 sequence (O14727 whole entry): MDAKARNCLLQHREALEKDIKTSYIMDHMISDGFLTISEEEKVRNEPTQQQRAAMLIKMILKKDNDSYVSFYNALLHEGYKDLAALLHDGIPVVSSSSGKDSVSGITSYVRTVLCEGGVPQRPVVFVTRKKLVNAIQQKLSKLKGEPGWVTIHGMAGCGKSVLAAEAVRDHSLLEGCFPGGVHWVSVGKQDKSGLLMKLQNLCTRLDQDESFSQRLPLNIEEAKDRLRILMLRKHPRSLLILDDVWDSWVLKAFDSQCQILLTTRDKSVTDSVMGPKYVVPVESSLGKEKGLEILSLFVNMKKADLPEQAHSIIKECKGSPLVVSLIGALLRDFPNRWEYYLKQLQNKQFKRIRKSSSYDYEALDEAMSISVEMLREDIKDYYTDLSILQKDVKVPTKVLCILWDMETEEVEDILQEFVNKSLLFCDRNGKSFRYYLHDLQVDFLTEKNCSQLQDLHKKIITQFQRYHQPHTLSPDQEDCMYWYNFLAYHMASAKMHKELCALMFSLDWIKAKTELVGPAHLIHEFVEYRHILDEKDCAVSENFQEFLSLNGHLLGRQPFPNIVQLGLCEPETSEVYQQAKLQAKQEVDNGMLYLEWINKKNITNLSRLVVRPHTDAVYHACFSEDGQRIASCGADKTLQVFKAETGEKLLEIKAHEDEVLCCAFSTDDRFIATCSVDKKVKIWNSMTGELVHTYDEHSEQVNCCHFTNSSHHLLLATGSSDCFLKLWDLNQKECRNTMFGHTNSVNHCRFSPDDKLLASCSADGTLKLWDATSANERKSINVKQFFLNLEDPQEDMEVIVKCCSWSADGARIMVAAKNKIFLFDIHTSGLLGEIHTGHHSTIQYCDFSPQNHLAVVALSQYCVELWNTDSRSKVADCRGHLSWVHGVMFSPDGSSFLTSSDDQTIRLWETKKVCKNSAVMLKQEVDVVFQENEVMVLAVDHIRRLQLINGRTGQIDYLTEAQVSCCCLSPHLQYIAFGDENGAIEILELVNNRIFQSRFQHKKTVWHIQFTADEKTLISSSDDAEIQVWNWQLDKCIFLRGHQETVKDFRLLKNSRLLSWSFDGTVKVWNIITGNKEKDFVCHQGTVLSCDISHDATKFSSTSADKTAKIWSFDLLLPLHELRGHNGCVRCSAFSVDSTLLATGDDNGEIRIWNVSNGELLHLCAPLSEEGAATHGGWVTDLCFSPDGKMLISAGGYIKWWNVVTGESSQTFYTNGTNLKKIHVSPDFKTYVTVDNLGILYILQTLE
Description: SAR analysis of small molecule inhibitors of Apaf-1 in a Fluorescent assay. In kind it is functional. Particulars: read-out: IC50_Mean.

Experiment [6] addresses Heat shock protein HSP 90-alpha (Homo sapiens, UniProt P07900). In kind it is functional, organism-based.
Experiment [7] deals with T2, High affinity choline transporter 1 (Homo sapiens, UniProt Q9GZV3).
T2 sequence (Q9GZV3 whole entry): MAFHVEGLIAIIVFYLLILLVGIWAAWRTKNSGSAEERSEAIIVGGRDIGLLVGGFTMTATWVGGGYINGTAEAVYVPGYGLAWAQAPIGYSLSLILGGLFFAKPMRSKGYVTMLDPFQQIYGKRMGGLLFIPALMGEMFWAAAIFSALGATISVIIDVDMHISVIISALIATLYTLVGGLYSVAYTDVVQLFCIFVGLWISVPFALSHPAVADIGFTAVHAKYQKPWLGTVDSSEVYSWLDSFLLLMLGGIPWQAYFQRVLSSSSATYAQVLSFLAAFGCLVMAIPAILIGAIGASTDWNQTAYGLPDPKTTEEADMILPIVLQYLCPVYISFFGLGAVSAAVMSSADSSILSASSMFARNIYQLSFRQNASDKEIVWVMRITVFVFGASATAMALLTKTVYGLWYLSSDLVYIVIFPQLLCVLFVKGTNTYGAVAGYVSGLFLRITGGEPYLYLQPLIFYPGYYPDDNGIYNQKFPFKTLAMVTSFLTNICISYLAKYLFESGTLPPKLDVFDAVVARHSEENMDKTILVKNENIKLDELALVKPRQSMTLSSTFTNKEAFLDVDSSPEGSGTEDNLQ
As to the kind of experiment: human choline transporter blockers, potency – cell-based, 5-point CRC, membrane potential dye, dose response (AID 504840). In kind it is functional.

A further experiment deals with H9c2. Description: cells. Particulars: Rattus norvegicus, H9c2, Myocardium. It counts as functional, cell-based.
Experiment [8] deals with T2, High affinity choline transporter 1. As to the kind of experiment: human choline transporter blockers, potency – cell-based, 10-point CRC, membrane potential dye, dose response (AID 588401).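 Further: membrane potential dye fluorescence of choline-evoked depolarization via CHT.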 In kind it is functional.

Calls of active or inactive are those of the source.

Sequence of ALK tyrosine kinase receptor (Q9UM73 whole entry): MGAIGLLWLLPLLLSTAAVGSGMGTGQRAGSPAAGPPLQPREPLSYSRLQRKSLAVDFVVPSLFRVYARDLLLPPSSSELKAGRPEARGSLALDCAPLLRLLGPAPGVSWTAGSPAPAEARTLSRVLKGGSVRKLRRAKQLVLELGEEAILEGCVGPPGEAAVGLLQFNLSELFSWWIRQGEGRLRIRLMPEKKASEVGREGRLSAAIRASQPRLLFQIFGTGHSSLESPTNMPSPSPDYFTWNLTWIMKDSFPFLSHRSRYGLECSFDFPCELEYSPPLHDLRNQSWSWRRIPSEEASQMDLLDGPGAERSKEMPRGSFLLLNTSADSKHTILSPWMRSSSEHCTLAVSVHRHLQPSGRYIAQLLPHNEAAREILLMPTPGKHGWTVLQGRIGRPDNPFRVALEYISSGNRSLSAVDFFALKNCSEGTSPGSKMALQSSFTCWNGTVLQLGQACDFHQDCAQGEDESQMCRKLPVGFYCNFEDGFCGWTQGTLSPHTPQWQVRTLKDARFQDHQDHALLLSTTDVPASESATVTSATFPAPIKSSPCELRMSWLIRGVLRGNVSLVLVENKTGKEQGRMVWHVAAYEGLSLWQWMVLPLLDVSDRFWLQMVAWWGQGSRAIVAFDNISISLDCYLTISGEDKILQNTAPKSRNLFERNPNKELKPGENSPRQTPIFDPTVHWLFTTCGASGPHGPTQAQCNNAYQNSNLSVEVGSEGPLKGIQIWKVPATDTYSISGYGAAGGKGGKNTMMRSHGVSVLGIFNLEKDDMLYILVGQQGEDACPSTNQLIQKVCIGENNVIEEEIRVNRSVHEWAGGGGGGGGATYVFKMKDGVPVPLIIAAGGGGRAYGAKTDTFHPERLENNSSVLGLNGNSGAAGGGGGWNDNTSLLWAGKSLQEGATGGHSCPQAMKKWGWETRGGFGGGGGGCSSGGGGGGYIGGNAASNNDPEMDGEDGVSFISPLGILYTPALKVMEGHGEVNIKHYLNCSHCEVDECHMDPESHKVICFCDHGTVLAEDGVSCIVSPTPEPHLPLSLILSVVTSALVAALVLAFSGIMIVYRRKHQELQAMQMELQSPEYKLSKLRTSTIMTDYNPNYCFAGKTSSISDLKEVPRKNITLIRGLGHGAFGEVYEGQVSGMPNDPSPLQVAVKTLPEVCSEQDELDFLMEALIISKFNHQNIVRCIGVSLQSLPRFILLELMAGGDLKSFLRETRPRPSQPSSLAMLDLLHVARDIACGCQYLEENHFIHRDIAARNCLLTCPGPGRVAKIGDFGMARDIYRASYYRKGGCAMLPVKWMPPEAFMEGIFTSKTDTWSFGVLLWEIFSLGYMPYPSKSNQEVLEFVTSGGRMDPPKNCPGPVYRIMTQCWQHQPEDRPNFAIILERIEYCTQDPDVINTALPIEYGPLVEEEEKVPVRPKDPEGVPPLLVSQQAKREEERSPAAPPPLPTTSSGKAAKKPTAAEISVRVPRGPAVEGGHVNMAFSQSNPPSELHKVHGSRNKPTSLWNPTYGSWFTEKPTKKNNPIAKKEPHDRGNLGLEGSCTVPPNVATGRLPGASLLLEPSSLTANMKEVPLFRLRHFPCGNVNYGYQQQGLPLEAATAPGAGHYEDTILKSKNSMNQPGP
Sequence of Botulinum neurotoxin type F (P30996 1-436 limits assumed): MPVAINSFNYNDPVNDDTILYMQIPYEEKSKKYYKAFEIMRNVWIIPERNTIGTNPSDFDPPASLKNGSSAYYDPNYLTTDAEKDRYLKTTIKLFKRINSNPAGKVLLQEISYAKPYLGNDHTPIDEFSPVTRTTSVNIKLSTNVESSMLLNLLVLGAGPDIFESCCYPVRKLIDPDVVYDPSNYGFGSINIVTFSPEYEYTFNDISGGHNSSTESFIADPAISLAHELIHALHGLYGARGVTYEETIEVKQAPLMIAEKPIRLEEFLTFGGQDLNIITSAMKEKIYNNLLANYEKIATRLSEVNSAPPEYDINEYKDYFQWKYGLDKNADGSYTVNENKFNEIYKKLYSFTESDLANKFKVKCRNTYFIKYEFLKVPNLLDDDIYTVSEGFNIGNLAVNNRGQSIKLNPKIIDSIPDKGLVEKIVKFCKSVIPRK
Sequence of Botulinum neurotoxin type A (P0DPI1 2-448 limits assumed): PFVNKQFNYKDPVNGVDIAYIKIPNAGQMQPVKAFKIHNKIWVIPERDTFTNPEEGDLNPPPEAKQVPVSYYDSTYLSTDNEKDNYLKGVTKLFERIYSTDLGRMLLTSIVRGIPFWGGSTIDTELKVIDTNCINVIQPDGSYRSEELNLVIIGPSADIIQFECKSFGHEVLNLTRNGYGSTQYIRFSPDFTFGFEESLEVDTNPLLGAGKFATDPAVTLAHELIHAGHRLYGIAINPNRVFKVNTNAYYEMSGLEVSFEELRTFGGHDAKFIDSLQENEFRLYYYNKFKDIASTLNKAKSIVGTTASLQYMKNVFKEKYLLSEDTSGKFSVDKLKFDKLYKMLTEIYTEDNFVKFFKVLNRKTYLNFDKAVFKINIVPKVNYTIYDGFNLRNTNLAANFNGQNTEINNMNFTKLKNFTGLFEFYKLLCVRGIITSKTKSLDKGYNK
Sequence of Cyclin-dependent kinase 19 (Q9BWU1 whole entry): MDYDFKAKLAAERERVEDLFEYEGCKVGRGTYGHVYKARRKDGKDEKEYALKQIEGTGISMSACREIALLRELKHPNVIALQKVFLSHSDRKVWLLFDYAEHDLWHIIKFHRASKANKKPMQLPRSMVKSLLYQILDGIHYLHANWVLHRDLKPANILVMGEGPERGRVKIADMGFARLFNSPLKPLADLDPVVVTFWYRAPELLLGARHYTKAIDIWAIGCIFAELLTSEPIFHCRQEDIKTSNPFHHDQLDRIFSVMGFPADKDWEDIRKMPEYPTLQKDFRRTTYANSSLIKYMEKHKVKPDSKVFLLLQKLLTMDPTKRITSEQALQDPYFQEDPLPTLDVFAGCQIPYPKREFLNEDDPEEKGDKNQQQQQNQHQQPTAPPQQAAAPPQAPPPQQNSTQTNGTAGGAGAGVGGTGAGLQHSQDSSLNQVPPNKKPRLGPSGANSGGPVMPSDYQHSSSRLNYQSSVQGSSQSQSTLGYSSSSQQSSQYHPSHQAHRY

`Cn1cc(Nc2ncc(Br)c(Nc3ccccc3S(C)(=O)=O)n2)cn1`: the Ki – broadly, a dissociation constant, usually derived from enzyme kinetics or from competition with a known ligand – in [1] was > 100 µM (inactive); in [2], 2.51 µM (active).
Take `O=C(Cc1ccccc1)c1ccccn1`: the EC50 in experiment [3] is 8.6 µM (active); in experiment [4] it was > 20 µM (inactive).
`Cc1cc(NC(=O)C2CC2)sc1C(=O)Nc1ccc2[nH]c(-c3cc(F)ccc3F)nc2c1`: the IC50 in [5] was 42.4 µM (active).
For the molecule `Oc1c(Br)cc(Br)cc1/C=N/Cc1ccccc1`, the half-maximal activity concentration (AC50) – broadly, the midpoint of the concentration-response curve, whichever way the signal moves – in experiment [6] is 5.31 µM (active). Also, the IC50 is 9.73 µM (active) in [7], > 79 µM (inactive) with H9c2 and 3.16 µM (active) in experiment [8].
